Experimental data from patent publication US7326697B2, “Methods for increasing the therapeutic response to electroconvulsive therapy” (Corcept Therapeutics, Inc., priority 2002, dated 2008).

Key:
[1] = Case: mental illness treated with mifepristone therapy followed by bilateral ECT; format: in vivo; conditions: one patient
Procedure: The patient subsequently underwent four treatments of bilateral ECT while continuing mifepristone therapy. […] During each treatment session, the patient received between 60 and 100 mg of methohexital and between 60 and 80 mg of succinylcholine.
For the first ECT treatment, the patient was delivered a stimulus using the Thymatron ECT device at 35% with […] eeg seizure duration and 115 second motor duration. After the first treatment, the patient was better able to organize their thoughts and was able to engage in more appropriate conversations. The second treatment was also at 35%, but the eeg duration decreased to 61 seconds and no motor seizure was detected. Consequently on the third treatment, the energy setting was increased to 40% with 115 second eeg duration and 91 second motor duration. After the third treatment, the patient had fewer somatic delusions, was able to comprehend written text and was easier to engage in conversation.

[2] = in one study; cited from earlier work

## CC#C[C@]1(O)CC[C@H]2[C@@H]3CCC4=CC(=O)CCC4=C3[C@@H](c3ccc(N(C)C)cc3)C[C@@]21C [mifepristone, (11β, 17β)-11-[4-(dimethylamino)phenyl]-17-hydroxy-17-(1-propynyl)estra-4,9-dien-3-one]
[1]; after four treatments of bilateral ECT, before the fifth
  clinical response to ECT while continuing mifepristone therapy: dramatically improved
[1]; before ECT
  clinical response to mifepristone therapy alone: not significantly improving
[1]; four treatments of bilateral ECT
  side-effects of ECT with continued mifepristone therapy: some impairment in short term memory but otherwise had no side-effects
[2]
  fraction of the daily dose excreted in the urine: less than 0.5%
